Assay results as given in PubChem BioAssay AID248 (DTP/NCI, 2004).
“And” between values parts separate entries of the source, which are not always exact repeats. Identical values can stand only once. Inconclusive results and toxic doses are left out. Rule as the data show it: active = T/C of 150% or more; inactive = T/C below 125%.

Tested on: L1210 leukemia ip in BDF1 mice, survival T/C
Test: NCI In Vivo Anticancer Drug Screen. Data for tumor model L1210 Leukemia (intraperitoneal) in B6D2F1 (BDF1) mice
Conditions: endpoint: mean survival time, higher = longer survival
In short: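 Survival endpoint. Drug-treated group vs vehicle group, expressed as T divided by C. Tumor passaged by transplantation.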

[1] = dose: 100.0 mg/kg/injection, schedule: Q01DX009 (ip), vehicle: Klucel (hydroxypropylcellulose) (HPC)
[2] = dose: 100.0 mg/kg/injection, schedule: Q04DX003 (ip), vehicle: Klucel (hydroxypropylcellulose) (HPC)
[3] = dose: 200.0 mg/kg/injection, schedule: Q01DX009 (ip), vehicle: Klucel (hydroxypropylcellulose) (HPC)
[4] = dose: 200.0 mg/kg/injection, schedule: Q04DX003 (ip), vehicle: Klucel (hydroxypropylcellulose) (HPC)
[5] = dose: 400.0 mg/kg/injection, schedule: Q01DX009 (ip), vehicle: Klucel (hydroxypropylcellulose) (HPC)
[6] = dose: 400.0 mg/kg/injection, schedule: Q04DX003 (ip), vehicle: Klucel (hydroxypropylcellulose) (HPC)
[7] = dose: 50.0 mg/kg/injection, schedule: Q01DX009 (ip), vehicle: saline
[8] = dose: 100.0 mg/kg/injection, schedule: Q01DX001 (ip), vehicle: carboxymethylcellulose (CMC)
[9] = dose: 200.0 mg/kg/injection, schedule: Q01DX001 (ip), vehicle: carboxymethylcellulose (CMC)
[10] = dose: 100.0 mg/kg/injection, schedule: Q01DX001 (ip), vehicle: saline
[11] = dose: 200.0 mg/kg/injection, schedule: Q01DX001 (ip), vehicle: saline
[12] = dose: 25.0 mg/kg/injection, schedule: Q04DX003 (ip), vehicle: saline with Tween-80
[13] = dose: 50.0 mg/kg/injection, schedule: Q01DX009 (ip), vehicle: saline with Tween-80
[14] = dose: 100.0 mg/kg/injection, schedule: Q01DX009 (ip), vehicle: saline with Tween-80
[15] = dose: 100.0 mg/kg/injection, schedule: Q04DX003 (ip), vehicle: saline with Tween-80
[16] = dose: 200.0 mg/kg/injection, schedule: Q01DX009 (ip), vehicle: saline with Tween-80
[17] = dose: 400.0 mg/kg/injection, schedule: Q01DX009 (ip), vehicle: saline with Tween-80

Measured: T/C

O=C(Cc1ccccc1)OCCc1ccccc1
inactive: [1] 98 % of control and 105 % of control | [2] 94 % of control and 98 % of control | [3] 97 % of control and 89 % of control | [4] 94 % of control and 100 % of control | [5] 101 % of control and 104 % of control | [6] 96 % of control and 100 % of control

CCC(C)N(CCCOC(=O)c1ccc(N)cc1)C(C)CC (stereo not drawn)
inactive: dose: 12.5 mg/kg/injection, schedule: Q01DX009 (ip), vehicle: saline 106 % of control | dose: 25.0 mg/kg/injection, schedule: Q01DX009 (ip), vehicle: saline 104 % of control | [7] 97 % of control

COC(=O)NNC(=O)OC
inactive: dose: 50.0 mg/kg/injection, schedule: Q01DX001 (ip), vehicle: carboxymethylcellulose (CMC) 89 % of control | [8] 94 % of control | [1] 97 % of control | [9] 97 % of control | [3] 100 % of control | dose: 400.0 mg/kg/injection, schedule: Q01DX001 (ip), vehicle: carboxymethylcellulose (CMC) 103 % of control | [5] 103 % of control

CNC(=O)Oc1ccc(C(=O)OC)cc1
inactive: [10] 93 % of control | [11] 90 % of control | dose: 400.0 mg/kg/injection, schedule: Q01DX001 (ip), vehicle: saline 122 % of control

CCOC(=O)n1c(=O)[nH]c2ccccc21
inactive: dose: 87.5 mg/kg/injection, schedule: Q04DX003 (ip), vehicle: carboxymethylcellulose (CMC) 97 % of control | dose: 175.0 mg/kg/injection, schedule: Q04DX003 (ip), vehicle: carboxymethylcellulose (CMC) 91 % of control | dose: 350.0 mg/kg/injection, schedule: Q04DX003 (ip), vehicle: carboxymethylcellulose (CMC) 101 % of control

CCOC(=O)C1C(O)=C(P(=O)(C2=C(O)C(C(=O)OCC)C(c3ccc(OC(C)=O)cc3)C(C(=O)O)C2=O)N(CCCl)CCCl)C(=O)C(C(=O)O)C1c1ccc(OC(C)=O)cc1 (stereo not drawn)
inactive: [1] 97 % of control | [2] 98 % of control | [3] 102 % of control | [4] 98 % of control | [5] 102 % of control | [6] 108 % of control

COc1ccc(C(=O)N/N=C/c2ccc(NC(C)=O)cc2)cc1
inactive: dose: 100.0 mg/kg/injection, schedule: Q04DX002 (ip), vehicle: Klucel (hydroxypropylcellulose) (HPC) 100 % of control | dose: 200.0 mg/kg/injection, schedule: Q04DX002 (ip), vehicle: Klucel (hydroxypropylcellulose) (HPC) 96 % of control | dose: 400.0 mg/kg/injection, schedule: Q04DX002 (ip), vehicle: Klucel (hydroxypropylcellulose) (HPC) 115 % of control

O=[N+]([O-])c1c[nH]c2[nH]cnc(=S)c12
inactive: [8] 102 % of control | [9] 87 % of control

Nc1ccc2cc(S(=O)(=O)O)cc(S(=O)(=O)O)c2c1
inactive: dose: 100.0 mg/kg/injection, schedule: Q04DX002 (ip), vehicle: saline 95 % of control | dose: 200.0 mg/kg/injection, schedule: Q04DX002 (ip), vehicle: saline 102 % of control

CC1(C)CN(Cc2ccccc2)C(C)(C)CN1
inactive: dose: 0.19 mg/kg/injection, schedule: Q01DX009 (ip), vehicle: saline with Tween-80 93 % of control | dose: 0.39 mg/kg/injection, schedule: Q01DX009 (ip), vehicle: saline with Tween-80 100 % of control | dose: 0.78 mg/kg/injection, schedule: Q01DX009 (ip), vehicle: saline with Tween-80 106 % of control | dose: 1.56 mg/kg/injection, schedule: Q01DX009 (ip), vehicle: saline with Tween-80 101 % of control | dose: 12.5 mg/kg/injection, schedule: Q04DX003 (ip), vehicle: saline with Tween-80 92 % of control | [12] 103 % of control

Cc1ccc(S(=O)(=O)Cl)cc1C(=O)O
inactive: dose: 12.5 mg/kg/injection, schedule: Q01DX001 (ip), vehicle: saline with Tween-80 92 % of control and 99 % of control | dose: 25.0 mg/kg/injection, schedule: Q01DX001 (ip), vehicle: saline with Tween-80 99 % of control and 87 % of control | dose: 25.0 mg/kg/injection, schedule: Q01DX009 (ip), vehicle: saline with Tween-80 102 % of control | [12] 103 % of control | [13] 93 % of control | dose: 50.0 mg/kg/injection, schedule: Q04DX002 (ip), vehicle: saline with Tween-80 96 % of control and 108 % of control | dose: 50.0 mg/kg/injection, schedule: Q04DX003 (ip), vehicle: saline with Tween-80 97 % of control | dose: 100.0 mg/kg/injection, schedule: Q01DX001 (ip), vehicle: saline with Tween-80 94 % of control and 95 % of control | [14] 96 % of control | dose: 100.0 mg/kg/injection, schedule: Q04DX002 (ip), vehicle: saline with Tween-80 104 % of control and 86 % of control and 90 % of control | [15] 98 % of control

Cc1cc(CSC2=NCCCN2)c(C)cc1CSC1=NCCCN1
inactive: dose: 1.56 mg/kg/injection, schedule: Q01DX009 (ip), vehicle: saline 88 % of control | dose: 3.13 mg/kg/injection, schedule: Q01DX009 (ip), vehicle: saline 103 % of control | dose: 6.25 mg/kg/injection, schedule: Q01DX009 (ip), vehicle: saline 92 % of control

COc1ccc(N(C=O)N=O)cc1
inactive: dose: 75.0 mg/kg/injection, schedule: Q01DX001 (ip), vehicle: other 90 % of control | dose: 150.0 mg/kg/injection, schedule: Q01DX001 (ip), vehicle: other 93 % of control

[O-][N+]1(c2ccc(Cl)cc2)CC[N+]([O-])(c2ccc(Cl)cc2)CC1 (stereo not drawn)
inactive: [2] 96 % of control | [4] 94 % of control | [6] 100 % of control

O=C1OC(c2ccccc2)(c2ccccc2)c2sccc21
inactive: [13] 91 % of control | [14] 102 % of control | [16] 94 % of control

CCCCOC(=O)c1ccc(NC(=S)NCCc2ccccc2)cc1
inactive: [1] 103 % of control | [3] 98 % of control | [5] 95 % of control

C(C[P+](c1ccccc1)(c1ccccc1)c1ccccc1)=C(c1ccccc1)c1ccccc1
inactive: dose: 10.0 mg/kg/injection, schedule: Q01DX001 (ip), vehicle: saline 103 % of control | dose: 40.0 mg/kg/injection, schedule: Q01DX001 (ip), vehicle: saline 95 % of control

CC1CC=CCC1COC(=O)C(=O)OCC1CC=CCC1C (stereo not drawn)
inactive: [14] 98 % of control | [15] 101 % of control | [16] 95 % of control | dose: 200.0 mg/kg/injection, schedule: Q04DX003 (ip), vehicle: saline with Tween-80 97 % of control | [17] 95 % of control | dose: 400.0 mg/kg/injection, schedule: Q04DX003 (ip), vehicle: saline with Tween-80 95 % of control

OC1CCC2CCCC2C1 (stereo not drawn)
inactive: [1] 97 % of control | [2] 102 % of control | [3] 97 % of control | [4] 98 % of control | [6] 99 % of control

ClCc1csc(-c2ccccc2)n1
inactive: [14] 115 % of control | [16] 94 % of control | [17] 92 % of control

CSc1ccc(NC(=O)Nc2c(C)cc(C)cc2C)cc1
inactive: dose: 25.0 mg/kg/injection, schedule: Q01DX009 (ip), vehicle: other 92 % of control | dose: 50.0 mg/kg/injection, schedule: Q01DX009 (ip), vehicle: other 93 % of control | dose: 100.0 mg/kg/injection, schedule: Q01DX009 (ip), vehicle: other 102 % of control

O=C1NC(=O)C(=O)C(=O)N1
inactive: [7] 94 % of control | dose: 50.0 mg/kg/injection, schedule: Q04DX003 (ip), vehicle: saline 93 % of control | [10] 94 % of control | dose: 100.0 mg/kg/injection, schedule: Q01DX009 (ip), vehicle: saline 97 % of control | dose: 100.0 mg/kg/injection, schedule: Q04DX003 (ip), vehicle: saline 97 % of control | [11] 108 % of control | dose: 200.0 mg/kg/injection, schedule: Q01DX009 (ip), vehicle: saline 103 % of control | dose: 200.0 mg/kg/injection, schedule: Q04DX003 (ip), vehicle: saline 97 % of control
